The text below walks through data of patent US8946439B2, “Amide compounds, compositions and uses thereof” (Evotec AG, priority 2008, dated 2015).

One assay has as its target T1, hP2X2/3H (Homo sapiens, UniProt P56373+Q9UBL9).
T1 construct: expressed in transfected cells; host or cells: e.g. HEK293 or 1321N1
T1 sequence (Q9UBL9 1-471): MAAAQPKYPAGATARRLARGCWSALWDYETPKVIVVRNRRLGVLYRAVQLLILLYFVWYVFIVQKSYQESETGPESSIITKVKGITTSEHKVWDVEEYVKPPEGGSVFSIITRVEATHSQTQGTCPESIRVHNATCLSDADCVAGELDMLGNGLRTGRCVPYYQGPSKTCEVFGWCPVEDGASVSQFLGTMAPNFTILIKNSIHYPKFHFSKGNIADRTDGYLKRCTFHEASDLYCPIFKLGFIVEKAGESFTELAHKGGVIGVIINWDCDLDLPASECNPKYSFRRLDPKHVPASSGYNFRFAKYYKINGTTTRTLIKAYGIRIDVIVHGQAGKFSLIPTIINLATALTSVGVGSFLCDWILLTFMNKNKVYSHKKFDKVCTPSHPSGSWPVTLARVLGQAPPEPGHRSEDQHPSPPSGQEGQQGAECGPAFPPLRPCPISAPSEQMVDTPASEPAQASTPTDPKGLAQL
T1 sequence (P56373 1-397): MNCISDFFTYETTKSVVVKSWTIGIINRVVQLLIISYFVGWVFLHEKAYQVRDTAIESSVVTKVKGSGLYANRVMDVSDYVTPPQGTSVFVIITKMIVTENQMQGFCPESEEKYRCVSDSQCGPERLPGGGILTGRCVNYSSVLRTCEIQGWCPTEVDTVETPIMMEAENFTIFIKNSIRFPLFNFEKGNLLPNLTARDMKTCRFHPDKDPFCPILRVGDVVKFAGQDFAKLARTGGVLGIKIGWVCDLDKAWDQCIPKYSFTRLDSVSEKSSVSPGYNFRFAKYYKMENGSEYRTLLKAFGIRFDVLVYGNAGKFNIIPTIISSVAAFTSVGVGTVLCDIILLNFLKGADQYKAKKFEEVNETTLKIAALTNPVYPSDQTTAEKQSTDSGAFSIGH
Briefly: Calcium uptake assay (P2X antagonist assay), P2X2/3 heteromer. Particulars: Ca influx (calcium uptake assay), hP2X2/3H; read-out: IC50 hP2X2/3H. The format is cell-based. Summed up:
(§1)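 Stably or transiently transfected HEK293 or 1321N1 cells; the heteromer is made by adding P2X3 to a P2X2-stable line, with heteromer function isolated pharmacologically. The peak-minus-baseline FLIPR calcium signal gives % inhibition and a 4-parameter-logistic IC50.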

For another assay, the target named is T2, hP2X3 (Homo sapiens, UniProt P56373).
T2 construct: expressed in transfected cells; host or cells: e.g. HEK293 or 1321N1
T2 sequence (P56373 1-397): T1 sequence (P56373 1-397)
In words: Calcium uptake assay (P2X antagonist assay), P2X3 homomer. Format: cell-based. Particulars: Ca influx (calcium uptake assay), hP2X3; read-out: IC50 hP2X3. Summed up:
as §1

pIC50: −log10 of the molar value.

As to `Cc1ccc(-c2cc(OC3COCC3O)cc(C(=O)N[C@H](C)c3ccc(C)nc3)c2)cc1` (stereo partly drawn) [Compound 336, 5-(4-Hydroxytetrahydrofuran-3-yloxy)-4′-methyl-N—((R)-1-(6-methylpyridin-3-yl)ethyl)biphenyl-3-carboxamide], the pIC50 on hP2X2/3H and at hP2X3 was > 7.00 each time.

On to `Cc1ccc(-c2cc(OC3COCC3O)cc(C(=O)N[C@H](C)c3ccc(C)nc3)c2)c(C#N)c1` (stereo partly drawn) [Compound 337], for which the pIC50 on hP2X2/3H and at hP2X3 was > 7.00 throughout.

Take `Cc1ccc(-c2cc(OC3CNCC3O)cc(C(=O)N[C@H](C)c3ccc(C)nc3)c2)c(C#N)c1` (stereo partly drawn) [Compound 338, 2′-Cyano-5-(4-hydroxypyrrolidin-3-yloxy)-4′-methyl-N—((R)-1-(6-methylpyridin-3-yl)ethyl)biphenyl-3-carboxamide]: the pIC50 on hP2X2/3H was 6.30 to 7.00; on hP2X3, > 7.00.

As for `Cc1ccc(-c2cc(OC3CNCC3O)cc(C(=O)N[C@H](C)c3ccc(C)nc3)c2)nc1` (stereo partly drawn) [Compound 339], the pIC50 was 6.30 to 7.00 on hP2X2/3H and > 7.00 at hP2X3.

For the compound `Cc1ccc(-c2cc(CN(C)C)cc(C(=O)N[C@H](C)c3ccc(C)nc3)c2)cc1` [Compound 340, (R)-5-((Dimethylamino)methyl)-4′-methyl-N-(1-(6-methylpyridin-3-yl)ethyl)biphenyl-3-carboxamide], the values for the pIC50 at hP2X2/3H and on hP2X3 were 6.30 to 7.00 and > 7.00, respectively.

Consider `Cc1ccc(-c2cc(Oc3nc(Cl)cs3)cc(C(=O)N[C@H](C)c3ccc(C)nc3)c2)cc1` [Compound 341], for which the pIC50 on hP2X2/3H is > 7.00; at hP2X3, 6.30 to 7.00.

For `CCN(CC)CC(O)c1cc(C(=O)N[C@H](C)c2ccc(C)nc2)cc(-c2ccc(C)cn2)c1` (stereo partly drawn) [Compound 342, 3-(2-(Diethylamino)-1-hydroxyethyl)-5-(5-methylpyridin-2-yl)-N—((R)-1-(6-methylpyridin-3-yl)ethyl)benzamide], the figures for the pIC50 at hP2X2/3H and at hP2X3 were 6.30 to 7.00 and > 7.00, respectively.

As to `CCN(CC)CC(O)c1cc(C(=O)N[C@H](C)c2ccc(C)nc2)cc(-c2ccc(C)cc2C#N)c1` (stereo partly drawn) [Compound 343], the pIC50 was 6.30 to 7.00 on hP2X2/3H and > 7.00 at hP2X3.

With `Cc1ccc(-c2cc(OCC(O)CO)cc(C(=O)N[C@H](C)c3ccc(C)nc3)c2)nc1` (stereo partly drawn) [Compound 344], the figures for the pIC50 at hP2X2/3H and on hP2X3 were 6.30 to 7.00 and > 7.00, respectively.

Regarding `Cc1ccc(-c2cc(OC(C)CO)cc(C(=O)N[C@H](C)c3ccc(C)nc3)c2)nc1` (stereo partly drawn) [Compound 345], the pIC50 at hP2X2/3H and on hP2X3 was > 7.00 in each case.

`Cc1ccc(-c2cc(OC(C)CO)cc(C(=O)N[C@H](C)c3ccc(C)nc3)c2)cc1` (stereo partly drawn) [Compound 346]: the pIC50 at hP2X2/3H and on hP2X3 was > 7.00 throughout.

In the case of `Cc1ccc(-c2cc(OC3COCC3O)cc(C(=O)N[C@H](C)c3ccc(C)nc3)c2)nc1` (stereo partly drawn) [Compound 347], the pIC50 at hP2X2/3H is 6.30 to 7.00; at hP2X3 it was > 7.00.

In the case of `COCC(CO)Oc1cc(C(=O)N[C@H](C)c2ccc(C)nc2)cc(-c2ccc(C)cn2)c1` (stereo partly drawn) [Compound 348], the pIC50 on hP2X2/3H and on hP2X3 was > 7.00 throughout.

As for `Cc1ccc(-c2cc(OCC3CNCCO3)cc(C(=O)N[C@H](C)c3ccc(C)nc3)c2)nc1` (stereo partly drawn) [Compound 349], the results for the pIC50 on hP2X2/3H and at hP2X3 were 6.30 to 7.00 and > 7.00, respectively.

For the compound `Cc1ccc(-c2cc(C(=O)NCc3ncc(C(F)(F)F)cc3Cl)cc(S(C)(=O)=O)c2)nc1` [Compound 350], the pIC50 is 6.30 to 7.00 at hP2X2/3H and > 7.00 on hP2X3.

For the compound `Cc1ccc(-c2cc(C(=O)NCc3ccn4ccnc4c3)cc(S(C)(=O)=O)c2)nc1` [Compound 351], the pIC50 on hP2X2/3H was 6.30 to 7.00; on hP2X3, > 7.00.

Take `Cc1ccc(-c2cc(C(=O)NCc3ccc4c(c3)S(=O)(=O)CC4)cc(S(C)(=O)=O)c2)nc1` [Compound 352]: the pIC50 is 6.30 to 7.00 on hP2X2/3H and > 7.00 at hP2X3.

Turning to `Cc1ccc(-c2cc(C(=O)N[C@H](C)c3cnc(C)nc3)cc(C(O)C(F)(F)F)c2)c(C#N)c1` (stereo partly drawn) [Compound 353], the pIC50 on hP2X2/3H and on hP2X3 was > 7.00 throughout.
